Reference: the NIST ThermoML archive (doi:10.1016/j.jct.2008.12.002)

Experiment: xn = mol fraction of the nth substance listed
Details: 101 kPa, Liquid, Vibrating tube method

CCCCCCCCOS(=O)(=O)[O-].CCCCn1cc[n+](C)c1 [1-butyl-3-methylimidazolium octyl sulfate] + OCCO
mass density [kg/m3]
Details | 298.15 K | 308.15 K | 318.15 K
x1 = 0.0003 | 1109.9 | 1102.8 | 1095.5
x1 = 0.0008 | 1109.8 | 1102.6 | 1095.3
x1 = 0.0012 | 1109.6 | 1102.5 | 1095.2
x1 = 0.0017 | 1109.5 | 1102.4 | 1095.1
x1 = 0.002 | 1109.4 | 1102.3 | 1095
x1 = 0.0038 | 1108.8 | 1101.7 | 1094.4
x1 = 0.007 | 1107.8 | 1100.7 | 1093.4
x1 = 0.0119 | 1106.3 | 1099.2 | 1092
x1 = 0.0174 | 1104.7 | 1097.7 | 1090.5
x1 = 0.0258 | 1102.5 | 1095.5 | 1088.2
x1 = 0.0508 | 1096.8 | 1089.8 | 1082.6
x1 = 0.19 | 1079.9 | 1072.9 | 1065.9
x1 = 0.301 | 1074.2 | 1067.3 | 1060.4
x1 = 0.3712 | 1072.2 | 1065.3 | 1058.4
x1 = 0.4591 | 1070.5 | 1063.6 | 1056.8
x1 = 0.5435 | 1069.4 | 1062.7 | 1055.9
x1 = 0.6225 | 1068.7 | 1062.1 | 1055.4
x1 = 0.7366 | 1068.2 | 1061.5 | 1054.9
x1 = 0.8073 | 1067.9 | 1061.3 | 1054.8
x1 = 0.9007 | 1067.7 | 1061.2 | 1054.6
x1 = 1 | 1067.6 | 1061 | 1054.5

CCCCn1cc[n+](C)c1.F[B-](F)(F)F [1-butyl-3-methylimidazolium tetrafluoroborate] + OCCO
mass density [kg/m3]
Details | 298.15 K | 308.15 K | 318.15 K
x1 = 0.0266 | 1116.7 | 1109.4 | 1102.2
x1 = 0.0766 | 1127.3 | 1119.9 | 1112.5
x1 = 0.1017 | 1131.9 | 1124.4 | 1116.9
x1 = 0.1678 | 1142.4 | 1134.7 | 1126.9
x1 = 0.2425 | 1152.1 | 1144.1 | 1136.2
x1 = 0.3825 | 1166 | 1157.8 | 1149.7
x1 = 0.4389 | 1170.5 | 1162.4 | 1154.3
x1 = 0.5207 | 1176.4 | 1168.3 | 1160.3
x1 = 0.6049 | 1181.7 | 1173.7 | 1165.8
x1 = 0.7196 | 1188.1 | 1180.4 | 1172.7
x1 = 0.8106 | 1192.7 | 1185.1 | 1177.6
x1 = 0.8978 | 1196.8 | 1189.4 | 1182.1
x1 = 1 | 1201.2 | 1194 | 1186.9

CCCCCCCC[n+]1ccn(C)c1.F[B-](F)(F)F [1-methyl-3-octylimidazolium tetrafluoroborate] + OCCO
mass density [kg/m3]
Details | 298.15 K | 308.15 K | 318.15 K
x1 = 0.0027 | 1109.9 | 1102.8 | 1095.7
x1 = 0.0046 | 1109.7 | 1102.7 | 1095.4
x1 = 0.0081 | 1109.5 | 1102.4 | 1095.2
x1 = 0.0151 | 1109 | 1101.9 | 1094.6
x1 = 0.0316 | 1108 | 1100.8 | 1093.4
x1 = 0.0614 | 1106.4 | 1099.2 | 1091.7
x1 = 0.083 | 1105.4 | 1098 | 1090.6
x1 = 0.1341 | 1103.5 | 1096 | 1088.6
x1 = 0.2026 | 1101.7 | 1094 | 1086.8
x1 = 0.273 | 1100.4 | 1092.7 | 1085.3
x1 = 0.4125 | 1099.2 | 1091.5 | 1084.2
x1 = 0.5198 | 1099 | 1091.3 | 1084.1
x1 = 0.6306 | 1099.3 | 1091.6 | 1084.5
x1 = 0.7919 | 1100.3 | 1092.6 | 1085.5
x1 = 0.9583 | 1101.6 | 1094 | 1087.1
x1 = 1 | 1101.9 | 1094.32 | 1087.5
